System: patients with advanced solid tumors
Assay: Phase I dose escalation: safety, tolerability, DLTs and MTD
Format: in vivo
Method: DDRiver Solid Tumors 410 was an open-label, first-in-human, multicenter, phase I study of lartesertib monotherapy, continuously administered once daily, conducted at three study sites in the United States and Canada. Part 1A was a lartesertib monotherapy dose-escalation study designed to evaluate the safety, tolerability, pharmacokinetics (PK), pharmacodynamics (PD), and early signs of efficacy in patients with advanced solid tumors. Patients were treated with lartesertib at increasing dose levels (DLs) ranging from 100 to 400 mg once daily. Each DL included a dose-limiting toxicity (DLT) observation period of 21 days; treatment was continued until disease progression, death, consent withdrawal, unacceptable toxicity, or the end of the study. Additional details are provided under Study Design in the Supplementary Material S1.
The primary endpoints were the occurrence of DLTs, adverse events (AE), and treatment-related and treatment-emergent AEs (TEAE), along with the occurrence of clinically significant changes in vital signs, laboratory parameters, and 12-lead electrocardiogram findings. The secondary endpoints included PK parameters of lartesertib in plasma after single and multiple doses; establishment of the recommended dose for expansion based on safety, PK, and PD data; absolute and relative changes overtime from baseline in ATM pathway readouts assessed by flow cytometry and immunohistochemistry; and objective response, duration of response, and progression-free survival (PFS) according to the RECIST version 1.1, as assessed by the investigator. Exploratory endpoints included the correlation of baseline and on-treatment biomarkers with response to lartesertib treatment as well as relative changes in total blood cell count, immune cells, and circulatory factors during exposure to lartesertib.
The DLT analysis set included all patients who received ≥80% of the planned cumulative dose during the DLT period (Period 1) and had completed the DLT period, or patients who experienced ≥1 DLT during the DLT period, regardless of the number of lartesertib doses administered. Additional details on all analysis sets are provided in the Supplementary Material S1. Analyses to determine dose escalation were performed on the DLT analysis set and were based on available safety and PK data. A Bayesian two-parameter logistic regression model (BLRM) was applied to assist the safety monitoring committee in dose recommendations during lartesertib dose escalation. For the determination of the MTD, posterior probabilities (2.5%, 25%, 50%, 75%, and 97.5% quantiles) for DLT rates at selected doses were estimated by a BLRM. The target toxicity of the model for MTD was set at 30%.
AEs and diseases were coded according to the Medical Dictionary for Regulatory Activities (RRID: SCR_003751) version 25.1 (until 30 days after the last study treatment). The severity of AEs was graded using the NCI Common Terminology Criteria for Adverse Events (RRID: SCR_010296) version 5.0.
Part 1A was a lartesertib monotherapy dose-escalation designed to determine the safety, tolerability, pharmacokinetics (PK), pharmacodynamics (PD), and early signs of efficacy in participants with solid tumors. For each patient, the study included a Screening period lasting up to 28 days and the estimated total duration in the study was an approximate of 105 days/15 weeks. Patients were treated with lartesertib orally as a tablet, at doses ranging from 100 to 400 mg once daily (QD) under a fasting condition of 2 hours pre-dose to 1-hour post-dose in general, and 2 hours pre-dose to 4 hours post-dose on days where PK-time matched triplicate ECG were collected. Patients were treated until disease progression, death, adverse events (AEs) leading to discontinuation of study intervention(s), or withdrawal of consent, whichever occurred first, or end of study. […]

## COc1cc2ncc3c(c2cc1-c1cn(C)nc1C)n(-c1c(F)cncc1OC)c(=O)n3C [lartesertib]
100 mg n = 2
  Any TEAE leading to death: 0 (0.0) n (%)
  Any lartesertib-related TEAE leading to death: 0 (0.0) n (%)
  TEAE: Urinary tract infection: 0 (0.0) n (%)
200 mg n = 7
  Any TEAE leading to death: 0 (0.0) n (%)
  Any lartesertib-related TEAE leading to death: 0 (0.0) n (%)
  TEAE: Urinary tract infection: 1 (14.3) n (%)
300 mg n = 9
  Any TEAE leading to death: 0 (0.0) n (%)
  Any lartesertib-related TEAE leading to death: 0 (0.0) n (%)
  TEAE: Urinary tract infection: 1 (11.1) n (%)
400 mg n = 4
  Any TEAE leading to death: 0 (0.0) n (%)
  Any lartesertib-related TEAE leading to death: 0 (0.0) n (%)
  TEAE: Urinary tract infection: 2 (50.0) n (%)
Total N = 22
  Any TEAE leading to death: 0 (0.0) n (%)
  Any lartesertib-related TEAE leading to death: 0 (0.0) n (%)
  TEAE: Urinary tract infection: 4 (18.2) n (%)
human, in vivo
  Abdominal pain, Grade ≥3: 1 (4.5) n (%)
  Abdominal pain, Grade ≥4: 0 (0.0) n (%)
  Abdominal pain, Grade ≥5: 0 (0.0) n (%)
  Alanine aminotransferase increased, Grade ≥3: 2 (9.2) n (%)
  Alanine aminotransferase increased, Grade ≥4: 0 (0.0) n (%)
  Alanine aminotransferase increased, Grade ≥5: 0 (0.0) n (%)
  Anemia, Grade ≥3: 4 (18.2) n (%)
  Anemia, Grade ≥4: 0 (0.0) n (%)
  Anemia, Grade ≥5: 0 (0.0) n (%)
  Any AESI cytopenia: 4 (18.2) n (%)
  Any AESI cytopenia, Grade ≥3 (all anemia events): 4 (18.2) n (%)
  Any TEAE: 22 (100.0) n (%)
  Any TEAE leading to permanent treatment discontinuation: 5 (22.7) n (%)
  Any TEAE leading to temporary treatment discontinuation: 5 (22.7) n (%)
  Any TEAE, Grade ≥3: 13 (59.1) n (%)
  Any TEAE, Grade ≥4: 1 (4.5) n (%)
  Any lartesertib-related TEAE: 15 (68.2) n (%)
  Any lartesertib-related TEAE, Grade ≥3: 4 (18.2) n (%)
  Any lartesertib-related TEAE, Grade ≥4: 1 (4.5) n (%)
  Any lartesertib-related serious TEAE: 2 (9.1) n (%)
  Any serious TEAE: 9 (40.9) n (%)
  Aspartate aminotransferase increased, Grade ≥3: 3 (13.6) n (%)
  Aspartate aminotransferase increased, Grade ≥4: 0 (0.0) n (%)
  Aspartate aminotransferase increased, Grade ≥5: 0 (0.0) n (%)
  Blood alkaline phosphatase increased, Grade ≥3: 1 (4.5) n (%)
  Blood alkaline phosphatase increased, Grade ≥4: 0 (0.0) n (%)
  Blood alkaline phosphatase increased, Grade ≥5: 0 (0.0) n (%)
  Blood and lymphatic system disorders, Grade ≥3: 4 (18.2) n (%)
  Blood and lymphatic system disorders, Grade ≥4: 0 (0.0) n (%)
  Blood and lymphatic system disorders, Grade ≥5: 0 (0.0) n (%)
  Blood bilirubin increased, Grade ≥3: 1 (4.5) n (%)
  Blood bilirubin increased, Grade ≥4: 0 (0.0) n (%)
  Blood bilirubin increased, Grade ≥5: 0 (0.0) n (%)
  Decreased appetite, Grade ≥3: 1 (4.5) n (%)
  Decreased appetite, Grade ≥4: 0 (0.0) n (%)
  Decreased appetite, Grade ≥5: 0 (0.0) n (%)
  Decreased neutrophil count, grade 1 or 2: 4.5%
  Decreased platelet count, grade 1 or 2: 4.5%
  Decreased white blood cell count, grade 1 or 2: 4.5%
  Dehydration, Grade ≥3: 1 (4.5) n (%)
  Dehydration, Grade ≥4: 0 (0.0) n (%)
  Dehydration, Grade ≥5: 0 (0.0) n (%)
  Gamma-glutamyltransferase increased, Grade ≥3: 1 (4.5) n (%)
  Gamma-glutamyltransferase increased, Grade ≥4: 0 (0.0) n (%)
  Gamma-glutamyltransferase increased, Grade ≥5: 0 (0.0) n (%)
  Gastrointestinal disorders, Grade ≥3: 3 (13.6) n (%)
  Gastrointestinal disorders, Grade ≥4: 0 (0.0) n (%)
  Gastrointestinal disorders, Grade ≥5: 0 (0.0) n (%)
  Grade ≥3 anemia: 18.2%
  Grade ≥3 decreased lymphocyte count: 13.6%
  Grade ≥3 increased aspartate aminotransferase: 13.6%
  Grade ≥3 maculopapular rash: 13.6%
  Immune system disorders, Grade ≥3: 1 (4.5) n (%)
  Immune system disorders, Grade ≥4: 1 (4.5) n (%)
  Immune system disorders, Grade ≥5: 0 (0.0) n (%)
  Investigations, Grade ≥3: 6 (27.3) n (%)
  Investigations, Grade ≥4: 0 (0.0) n (%)
  Investigations, Grade ≥5: 0 (0.0) n (%)
  Lartesertib-related TEAE: Aspartate aminotransferase increased: 3 (13.6) n (%)
  Lartesertib-related TEAE: Blood creatinine increased: 3 (13.6) n (%)
  Lartesertib-related TEAE: Diarrhea: 4 (18.2) n (%)
  Lartesertib-related TEAE: Headache: 3 (13.6) n (%)
  Lartesertib-related TEAE: Maculopapular rash: 5 (22.7) n (%)
  Lartesertib-related TEAE: Nausea: 5 (22.7) n (%)
  Lartesertib-related TEAE: Pyrexia: 6 (27.3) n (%)
  Lymphocyte count decreased, Grade ≥3: 3 (13.6) n (%)
  Lymphocyte count decreased, Grade ≥4: 0 (0.0) n (%)
  Lymphocyte count decreased, Grade ≥5: 0 (0.0) n (%)
  Maculopapular rash, Grade ≥3: 3 (13.6) n (%)
  Maculopapular rash, Grade ≥4: 0 (0.0) n (%)
  Maculopapular rash, Grade ≥5: 0 (0.0) n (%)
  Metabolism and nutrition disorders, Grade ≥3: 1 (4.5) n (%)
  Metabolism and nutrition disorders, Grade ≥4: 0 (0.0) n (%)
  Metabolism and nutrition disorders, Grade ≥5: 0 (0.0) n (%)
  Nausea, Grade ≥3: 2 (9.1) n (%)
  Nausea, Grade ≥4: 0 (0.0) n (%)
  Nausea, Grade ≥5: 0 (0.0) n (%)
  Patients with at least one TEAE: 100%
  Patients with at least one lartesertib-related TEAE: 68.2%
  Patients with lartesertib-related grade 3 TEAEs: 18.2%
  Patients with serious TEAEs: 40.9%
  Serious TEAE maculopapular rash: 9.1%
  Serious TEAE nausea: 9.1%
  Skin and subcutaneous tissue disorders, Grade ≥3: 3 (13.6) n (%)
  Skin and subcutaneous tissue disorders, Grade ≥4: 0 (0.0) n (%)
  Skin and subcutaneous tissue disorders, Grade ≥5: 0 (0.0) n (%)
  TEAE fatigue: 40.9%
  TEAE increased blood creatinine: 27.3%
  TEAE nausea: 27.3%
  TEAE pyrexia: 36.4%
  TEAE: Abdominal pain: 4 (18.2) n (%)
  TEAE: Alanine aminotransferase increased: 4 (18.2) n (%)
  TEAE: Anemia: 4 (18.2) n (%)
  TEAE: Aspartate aminotransferase increased: 4 (18.2) n (%)
  TEAE: Blood bilirubin increased: 3 (13.6) n (%)
  TEAE: Blood creatinine increased: 6 (27.3) n (%)
  TEAE: Decreased appetite: 3 (13.6) n (%)
  TEAE: Diarrhea: 4 (18.2) n (%)
  TEAE: Fatigue: 9 (40.9) n (%)
  TEAE: Headache: 3 (13.6) n (%)
  TEAE: Lymphocyte count decreased: 3 (13.6) n (%)
  TEAE: Maculopapular rash: 5 (22.7) n (%)
  TEAE: Nausea: 6 (27.3) n (%)
  TEAE: Pyrexia: 8 (36.4) n (%)
  TEAE: Vomiting: 5 (22.7) n (%)
  TEAEs, subjects with at least one event, Grade ≥3: 13 (59.1) n (%)
  TEAEs, subjects with at least one event, Grade ≥4: 1 (4.5) n (%)
  TEAEs, subjects with at least one event, Grade ≥5: 0 (0.0) n (%)
  Vomiting, Grade ≥3: 1 (4.5) n (%)
  Vomiting, Grade ≥4: 0 (0.0) n (%)
  Vomiting, Grade ≥5: 0 (0.0) n (%)
In vivo
  Changes in vital signs and triplicate electrocardiogram values: No clinically meaningful changes
  Patients with ≥1 treatment-related adverse events of grade ≥3: Five patients
oral, continuous once daily monotherapy, suggested by BLRM
  Maximum tolerated dose (MTD): 300 mg once daily
Study period
  TEAEs leading to death: No TEAEs led to death

Reference: PMC12580772, “A First-in-Human Study of ATM Inhibitor Lartesertib as Monotherapy in Patients with Advanced Solid Tumors” (Clinical Cancer Research, 2025)
